Patent US10092620B2, “Uses of cyclic peptides for treating and preventing atherosclerosis” (THE SCRIPPS RESEARCH INSTITUTE, priority 2013, dated 2018)
Non-standard residues stand in square brackets, D forms with d. 1Nal = N[C@@H](Cc1cccc2ccccc12)C(=O)O; Aoc(2) = CCCCCC[C@H](N)C(=O)O; dOrn = NCCC[C@@H](N)C(=O)O; Dap = NC[C@H](N)C(=O)O

Test system: HDL in human plasma
Assay: pre-beta HDL ELISA assay: remodeling HDL in human plasma in vitro
Assay type: biochemical
Conditions: not given
Description: First, various cyclic peptides, including the majority of compounds shown in FIG. 2, were assessed for activities for remodeling HDL in human plasma in vitro. Unlike western blot which was used to generate data shown in FIG. 2, here a pre-beta HDL ELISA assay was used to measure pre-beta HDL levels. Results from the assay are shown in Table 1, which lists the peptides in the order of their activities in remodeling HDL.

“c[WIWrEqEr] (cyclo(WIW[dR]E[dQ]E[dR]); SMILES CC[C@H](C)[C@@H]1NC(=O)[C@H](Cc2c[nH]c3ccccc23)NC(=O)[C@@H](CCCNC(=N)N)NC(=O)[C@H](CCC(=O)O)NC(=O)[C@@H](CCC(N)=O)NC(=O)[C@H](CCC(=O)O)NC(=O)[C@@H](CCCNC(=N)N)NC(=O)[C@H](Cc2c[nH]c3ccccc23)NC1=O) [SEQ ID NO:50]” was tested, and the “activity in generating pre-beta HDL (in words)” value (from here on “activity”) was “excellent activities in generating plasma pre-beta HDL”.
“c[WlWwkhkh] (cyclo(WIW[dW][dK][dH][dK][dH])) [SEQ ID NO:47]” was tested, and the “activity” value was “excellent activities in generating plasma pre-beta HDL”.
“c[fWwYqHhQ] (cyclo([dF]W[dW]Y[dQ]H[dH]Q); SMILES NC(=O)CC[C@@H]1NC(=O)[C@@H](Cc2c[nH]cn2)NC(=O)[C@H](Cc2c[nH]cn2)NC(=O)[C@@H](CCC(N)=O)NC(=O)[C@H](Cc2ccc(O)cc2)NC(=O)[C@@H](Cc2c[nH]c3ccccc23)NC(=O)[C@H](Cc2c[nH]c3ccccc23)NC(=O)[C@@H](Cc2ccccc2)NC1=O) [SEQ ID NO:5]” was tested, and the “activity” value was “excellent activities in promoting generation of pre-beta HDL”.
With “c[fWwYtRhS] (cyclo([dF]W[dW]Y[dT]R[dH]S); SMILES C[C@H](O)[C@H]1NC(=O)[C@H](Cc2ccc(O)cc2)NC(=O)[C@@H](Cc2c[nH]c3ccccc23)NC(=O)[C@H](Cc2c[nH]c3ccccc23)NC(=O)[C@@H](Cc2ccccc2)NC(=O)[C@H](CO)NC(=O)[C@@H](Cc2c[nH]cn2)NC(=O)[C@H](CCCNC(=N)N)NC1=O) [SEQ ID NO:51]” the “activity” value was “excellent activities in promoting generation of pre-beta HDL”.

Same assay, conditions: pre-beta HDL ELISA

Compared with “66 (cyclo([dW][benzyltyrosine][dK]N[dN]K[dK]K); ring closure inferred) [compound 66]”, “67 (cyclo([dW][homoleucine][dW]R[dE]Q[dE]R); ring closure inferred) [compound 67]” is lower in “Pre-beta HDL generated (normalized level)” value: 0.10 for the first, 0.08 for the second.

“68 (cyclo([dW]W[dF]Y[dK]H[dS]S); SMILES NCCCC[C@H]1NC(=O)[C@H](Cc2ccc(O)cc2)NC(=O)[C@@H](Cc2ccccc2)NC(=O)[C@H](Cc2c[nH]c3ccccc23)NC(=O)[C@@H](Cc2c[nH]c3ccccc23)NC(=O)[C@H](CO)NC(=O)[C@@H](CO)NC(=O)[C@H](Cc2c[nH]cn2)NC1=O) [compound 68]” and “69 (cyclo([dL]W[dL]H[dE]K[dK]H); SMILES CC(C)C[C@H]1NC(=O)[C@H](Cc2c[nH]cn2)NC(=O)[C@@H](CCCCN)NC(=O)[C@H](CCCCN)NC(=O)[C@@H](CCC(=O)O)NC(=O)[C@H](Cc2c[nH]cn2)NC(=O)[C@@H](CC(C)C)NC(=O)[C@H](Cc2c[nH]c3ccccc23)NC1=O) [compound 69]” are the same in “Pre-beta HDL generated (normalized level)” value: 0.07 for the first, 0.07 for the second.

“70 (cyclo(L[dL]W[dL]K[dK]K[dK]); SMILES CC(C)C[C@@H]1NC(=O)[C@@H](CCCCN)NC(=O)[C@H](CCCCN)NC(=O)[C@@H](CCCCN)NC(=O)[C@H](CCCCN)NC(=O)[C@@H](CC(C)C)NC(=O)[C@H](Cc2c[nH]c3ccccc23)NC(=O)[C@@H](CC(C)C)NC1=O) [compound 70]” and “71 (cyclo(WGWGW[dK]S[dOrn]); ring closure inferred) [compound 71]” are the same in “Pre-beta HDL generated (normalized level)” value: 0.06 for the first, 0.06 for the second.

“72 (cyclo([dL]W[dK]H[dS]H[dK]K); SMILES CC(C)C[C@H]1NC(=O)[C@H](CCCCN)NC(=O)[C@@H](CCCCN)NC(=O)[C@H](Cc2c[nH]cn2)NC(=O)[C@@H](CO)NC(=O)[C@H](Cc2c[nH]cn2)NC(=O)[C@@H](CCCCN)NC(=O)[C@H](Cc2c[nH]c3ccccc23)NC1=O) [compound 72]” and “73 (cyclo(L[dW]L[dH]K[dK]E[dH]); SMILES CC(C)C[C@@H]1NC(=O)[C@@H](Cc2c[nH]c3ccccc23)NC(=O)[C@H](CC(C)C)NC(=O)[C@@H](Cc2c[nH]cn2)NC(=O)[C@H](CCC(=O)O)NC(=O)[C@@H](CCCCN)NC(=O)[C@H](CCCCN)NC(=O)[C@@H](Cc2c[nH]cn2)NC1=O) [compound 73]” are the same in “Pre-beta HDL generated (normalized level)” value: 0.04 for the first, 0.04 for the second.

Compared with “74 (cyclo([dF]F[dY]F[dK]K); SMILES NCCCC[C@@H]1NC(=O)[C@@H](CCCCN)NC(=O)[C@H](Cc2ccccc2)NC(=O)[C@@H](Cc2ccc(O)cc2)NC(=O)[C@H](Cc2ccccc2)NC(=O)[C@@H](Cc2ccccc2)NC1=O) [compound 74]”, “75 (cyclo([dW]L[dW][Dap][dE]Q[dE]K); ring closure inferred) [compound 75]” is lower in “Pre-beta HDL generated (normalized level)” value: 0.04 for the first, 0.03 for the second.

First: 76 (cyclo([dL]W[dL]K[dK]K[dH]R); SMILES CC(C)C[C@H]1NC(=O)[C@H](CCCNC(=N)N)NC(=O)[C@@H](Cc2c[nH]cn2)NC(=O)[C@H](CCCCN)NC(=O)[C@@H](CCCCN)NC(=O)[C@H](CCCCN)NC(=O)[C@@H](CC(C)C)NC(=O)[C@H](Cc2c[nH]c3ccccc23)NC1=O) [compound 76]
Second: 77 (cyclo(W[dF]E[dL]Y[dS]H[dOrn]); ring closure inferred) [compound 77]
The “Pre-beta HDL generated (normalized level)” value of the first is higher: 0.03 for the first, 0.02 for the second.

“78 (cyclo([dY]L[dW]K[dK]K); SMILES CC(C)C[C@@H]1NC(=O)[C@@H](Cc2ccc(O)cc2)NC(=O)[C@H](CCCCN)NC(=O)[C@@H](CCCCN)NC(=O)[C@H](CCCCN)NC(=O)[C@@H](Cc2c[nH]c3ccccc23)NC1=O) [compound 78]” and “79 (cyclo([dW]L[dK]S[dK]S[dK]S); SMILES CC(C)C[C@@H]1NC(=O)[C@@H](Cc2c[nH]c3ccccc23)NC(=O)[C@H](CO)NC(=O)[C@@H](CCCCN)NC(=O)[C@H](CO)NC(=O)[C@@H](CCCCN)NC(=O)[C@H](CO)NC(=O)[C@@H](CCCCN)NC1=O) [compound 79]” are the same in “Pre-beta HDL generated (normalized level)” value: 0.01 for the first, 0.01 for the second.

First: 80 (cyclo([dW]L[dW]R[dD]Q[dE]K); SMILES CC(C)C[C@@H]1NC(=O)[C@@H](Cc2c[nH]c3ccccc23)NC(=O)[C@H](CCCCN)NC(=O)[C@@H](CCC(=O)O)NC(=O)[C@H](CCC(N)=O)NC(=O)[C@@H](CC(=O)O)NC(=O)[C@H](CCCNC(=N)N)NC(=O)[C@@H](Cc2c[nH]c3ccccc23)NC1=O) [compound 80]
Second: c[wLwKeNeK] (cyclo([dW]L[dW]K[dE]N[dE]K); SMILES CC(C)C[C@@H]1NC(=O)[C@@H](Cc2c[nH]c3ccccc23)NC(=O)[C@H](CCCCN)NC(=O)[C@@H](CCC(=O)O)NC(=O)[C@H](CC(N)=O)NC(=O)[C@@H](CCC(=O)O)NC(=O)[C@H](CCCCN)NC(=O)[C@@H](Cc2c[nH]c3ccccc23)NC1=O) [SEQ ID NO:11]
The “Pre-beta HDL generated (normalized level)” value of the first is lower: 0.01 for the first, 0.24 for the second.

Going from “w(Aoc)wReQeR (cyclo([dW][Aoc(2)][dW]R[dE]Q[dE]R); ring closure inferred) [SEQ ID NO:31]” to “w(Nal)wReQeR (cyclo([dW][1Nal][dW]R[dE]Q[dE]R); ring closure inferred) [SEQ ID NO:28]”, the “Pre-beta HDL generated (normalized level)” value rises from 0.04 to 0.35.
